Measured values from US20260144798A1, “Disruption of Vascular Smooth Muscle Relaxation by Carfilzomib May be the Primary Reason for CFZ-Induced Vascular Dysfunction” (AMGEN INC., priority 2019, published 2026).

Assays:
eNOS = experiment: Western blot of phosphorylated eNOS and eNOS in mouse endothelial cells; format: cell-based; details: different concentrations of CFZ (FIG. 3A)
Protocol: Protein levels of eNOS were unable to be assessed in rat endothelial cells; therefore, endothelial cells from mice were used. Mouse coronary endothelial cells (Cell Biologics) at passage 7 were seeded at 50,000 cells per well with 200 μL of endothelial cell media (Cell Biologics) in 96-well plates for 24 hours at 37° C. in 5% CO2. Some cells were pretreated with 100 μM L-NAME for 1 hour before adding 10 μM ACh. Cells were further treated with 0.3, 0.9, or 2.7 μM of CFZ or its vehicle for an additional 48 hours. The supernatant was collected and the amount of NO was assessed following the manufacturer's protocol for the colorimetric Nitric Oxide Assay Kit (Abcam, Cambridge, MA).
Each cell pellet was lysed in 50 to 70 μL RIPA buffer (Cell Signaling Technology, Danvers, MA) with the Halt™ protease and phosphatase inhibitor cocktail (Thermo Fisher Scientific). Lysates were quantitated and loaded onto the Li-COR Western blot system. Antibodies specific to phosphorylated eNOS and eNOS from Thermo Fisher Scientific, anti-Guanylyl Cyclase β1 (ER-19) (Sigma-Aldrich), and β-Actin (Sigma-Aldrich) were diluted 1:1000 for Western blot. Antibodies specific to p-VASP, VASP, and GADPH-HRP were purchased from Cell Signaling Technology.

VASP = experiment: Western blot of p-VASP (S239) in rat thoracic aortic tissue; details: CFZ treatment vs vehicle control (FIG. 6A)
Protocol: Each cell pellet was lysed in 50 to 70 μL RIPA buffer (Cell Signaling Technology, Danvers, MA) with the Halt™ protease and phosphatase inhibitor cocktail (Thermo Fisher Scientific). Lysates were quantitated and loaded onto the Li-COR Western blot system. Antibodies specific to phosphorylated eNOS and eNOS from Thermo Fisher Scientific, anti-Guanylyl Cyclase β1 (ER-19) (Sigma-Aldrich), and β-Actin (Sigma-Aldrich) were diluted 1:1000 for Western blot. Antibodies specific to p-VASP, VASP, and GADPH-HRP were purchased from Cell Signaling Technology. […] The number of measurements is indicated by “n.” #denotes P<0.05 (red vs. blue).

rat aortic rings = experiment: sGC activator (cinaciguat, riociguat)-induced relaxation of rat aortic rings; details: cinaciguat or riociguat (FIG. 4C)
Protocol: An isometric myograph (DMT 620M) was used for ex vivo measurement of vascular function. Eight-to 10-week old Sprague Dawley rats (purchased from Charles River Laboratories, Wilmington, MA) were first anesthetized with 3% isoflurane and then euthanized using inhaled desflurane. The aortas were isolated in an ice-cold, oxygenated (95% O2, 5% CO2) Krebs-Henseleit buffer (118.3 mM NaCl, 4.7 mM KCl, 1.2 mM MgSO4, 1.2 mM KH2PO4, 2.5 mM CaCl2, 25 mM NaHCO3, and 11.0 mM glucose; purchased from Sigma-Aldrich, St. Louis, MO). The thoracic aorta was carefully cleaned to remove perivascular fat and cut into 2-mm rings that were mounted between two stainless steel wires in the myograph chamber containing 8 mL of Krebs-Henseleit buffer in 95% O2 and 5% CO2 at 37° C. First, the rings were equilibrated in the chamber for 20 minutes, followed by a gradual increase of mechanical stretch until a final stretch of 10 mN (Newton) was reached. After an additional incubation with fresh buffer for 30 minutes, the rings were constricted with 8 mL of 80 mM KPSS (43 mM NaCl, 80 mM KCl, 2.5 mM CaCl2, 1.2 mM MgSO4, 1.2 mM KH2PO4, 25.0 mM NaHCO3, and 11.0 mM glucose) for 15 to 20 minutes, followed by 3 washes with the Krebs-Henseleit buffer until the force returned to the baseline stretch. The tension of the aortic rings was continuously measured with the Lab Chart 7 data acquisition system (ADInstruments, Colorado Springs, CO). […] The tension of the aortic rings was continuously measured with the Lab Chart 7 data acquisition system (ADInstruments, Colorado Springs, CO).
To assess the effect of CFZ on vascular contraction, the aortic rings were pre-treated with or without CFZ for 2 hours, followed by treatment with an increasing concentration of phenylephrine (PE) from 10 nM to 1 μM. […] The contraction was continuously measured and plotted as percent contraction normalized to the response of KPSS. […] The relaxation was continuously measured and plotted as percent relaxation normalized to the response with 1 μM PE.

CC(C)C[C@H](NC(=O)[C@H](CCc1ccccc1)NC(=O)CN1CCOCC1)C(=O)N[C@@H](Cc1ccccc1)C(=O)N[C@@H](CC(C)C)C(=O)[C@@]1(C)CO1 [CFZ, carfilzomib]
level of phosphorylated eNOS (eNOS): increasing level of phosphorylated eNOS corresponded to the increasing CFZ concentration | protein expression level of total eNOS (eNOS): remained the same | level of p-VASP (VASP): reduced level of p-VASP compared with the vehicle control | effect on VSM relaxation in the presence of sGC activators (rat aortic rings): did not interfere with VSM relaxation
